Entries after “also recorded” stand apart in the source; their conditions may differ. Like-named read-outs stand apart in the source and are kept apart here.
What was measured:
[1] = molecular target: Vitamin K Oxide Reductase (Homo sapiens, UniProt Q9BQB6); details: cited from earlier work
[2] = tested on: bacteria; details: cited from earlier work
[3] = tested on: patients suffering from chronic periodontitis; experiment: Observation of patients suffering from chronic periodontitis under continued systemic medication with Warfarin; type: in vivo, human
Description: Such observations had not been reported in the medical literature or anywhere else.

[4] = tested on: bacterial VKOR of several strains of mycobacteria; details: cited from earlier work
[5] = molecular target: T1, human VKOR (Homo sapiens, UniProt Q9BQB6); experiment: Inhibition of the human VKOR by unbound plasma Warfarin; type: in vivo; details: converted from ng/ml
T1 construct: from tissue
T1 sequence (Q9BQB6 whole entry): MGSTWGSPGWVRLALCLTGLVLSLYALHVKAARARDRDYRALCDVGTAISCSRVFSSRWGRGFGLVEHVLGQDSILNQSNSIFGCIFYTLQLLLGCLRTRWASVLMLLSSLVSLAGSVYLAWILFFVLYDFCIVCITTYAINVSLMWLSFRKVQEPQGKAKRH

[6] = molecular target: T1, human VKOR; details: cited from earlier work
[7] = Warfarin in plasma and saliva (oral fluid) of 14 patients undergoing Warfarin therapy (Lomonaco et al. 2014); type: in vivo, human; details: inferred from the findings of Lomonaco

Vitamin K Oxide Reductase, sequence (Q9BQB6 whole entry): as above

Which “sensitivity of Vitamin K Oxide Reductase to inhibition” value [1] does the source give for `O=c1oc2ccccc2c(O)c1Cc1c(O)c2ccccc2oc1=O` [Dicumarol] here?
Its value is “highly sensitive to inhibition”.

What about the antibacterial properties [2] of the same molecule?
The antibacterial properties was “marked antibacterial properties”.

With `CC(=O)CC(c1ccccc1)c1c(O)c2ccccc2oc1=O` (stereo not shown) [Warfarin] as the molecule, how does the “buildup of dental plaque and tartar” value [3] read?
Its value is “significant decrease; also recorded: reduced”.

And the “chronic periodontitis / periodontal disease” value [3]?
Its value is “marked improvement; also recorded: significant reduction”.

And the “frequency and severity of gingival inflammation occurrences” value [3]?
Its value is “reduction; also recorded: reduced”.

What about the “concentration at which bacterial VKOR was inhibited” value [4] of the same molecule?
The value was 1.6 to 4.5 mM.

And the “sensitivity of Vitamin K Oxide Reductase to inhibition” value [1]?
The value was “highly sensitive to inhibition”.

And the “unbound plasma concentration sufficient for effective inhibition of the human VKOR” value [5]?
The value was ~30 nM.

And the “unbound plasma concentration sufficient for effective inhibition of the human VKOR” value [6]?
The value was 9 ± 4 ng/mL.

What about the “concentration in oral fluid sufficient to be effective” value [7] of the same molecule?
The value was “less than 1×10^−7 M”.
